Test results from patent EP0522502A1, “Inhibitors of sucrase activity from tea” (MITSUI NORIN CO., LTD., priority 1991, dated 1993).

How the values were obtained:
Sucrase = target: T1, Sucrase (Rattus norvegicus, UniProt P23739); assay: Sucrase activity inhibition (Dahlquist enzyme preparation, Bernfeld sugar determination); format: biochemical, Wistar rats; conditions: for Inhibition (%): final concentration of 5x10⁻⁴ M, substrate 60mM sucrose solution, 37 °C for 15 minutes, control (distilled water) = 100% activity; for sucrase activity inhibiting capacity: verbal summary of Table 1, 5x10⁻⁴ M
T1 construct: Sucrase was prepared from the mucous membrane of the small intestines of Wistar rats; from tissue; host or cells: mucous membrane of the small intestine of Wistar rats
T1 sequence (P23739 whole entry): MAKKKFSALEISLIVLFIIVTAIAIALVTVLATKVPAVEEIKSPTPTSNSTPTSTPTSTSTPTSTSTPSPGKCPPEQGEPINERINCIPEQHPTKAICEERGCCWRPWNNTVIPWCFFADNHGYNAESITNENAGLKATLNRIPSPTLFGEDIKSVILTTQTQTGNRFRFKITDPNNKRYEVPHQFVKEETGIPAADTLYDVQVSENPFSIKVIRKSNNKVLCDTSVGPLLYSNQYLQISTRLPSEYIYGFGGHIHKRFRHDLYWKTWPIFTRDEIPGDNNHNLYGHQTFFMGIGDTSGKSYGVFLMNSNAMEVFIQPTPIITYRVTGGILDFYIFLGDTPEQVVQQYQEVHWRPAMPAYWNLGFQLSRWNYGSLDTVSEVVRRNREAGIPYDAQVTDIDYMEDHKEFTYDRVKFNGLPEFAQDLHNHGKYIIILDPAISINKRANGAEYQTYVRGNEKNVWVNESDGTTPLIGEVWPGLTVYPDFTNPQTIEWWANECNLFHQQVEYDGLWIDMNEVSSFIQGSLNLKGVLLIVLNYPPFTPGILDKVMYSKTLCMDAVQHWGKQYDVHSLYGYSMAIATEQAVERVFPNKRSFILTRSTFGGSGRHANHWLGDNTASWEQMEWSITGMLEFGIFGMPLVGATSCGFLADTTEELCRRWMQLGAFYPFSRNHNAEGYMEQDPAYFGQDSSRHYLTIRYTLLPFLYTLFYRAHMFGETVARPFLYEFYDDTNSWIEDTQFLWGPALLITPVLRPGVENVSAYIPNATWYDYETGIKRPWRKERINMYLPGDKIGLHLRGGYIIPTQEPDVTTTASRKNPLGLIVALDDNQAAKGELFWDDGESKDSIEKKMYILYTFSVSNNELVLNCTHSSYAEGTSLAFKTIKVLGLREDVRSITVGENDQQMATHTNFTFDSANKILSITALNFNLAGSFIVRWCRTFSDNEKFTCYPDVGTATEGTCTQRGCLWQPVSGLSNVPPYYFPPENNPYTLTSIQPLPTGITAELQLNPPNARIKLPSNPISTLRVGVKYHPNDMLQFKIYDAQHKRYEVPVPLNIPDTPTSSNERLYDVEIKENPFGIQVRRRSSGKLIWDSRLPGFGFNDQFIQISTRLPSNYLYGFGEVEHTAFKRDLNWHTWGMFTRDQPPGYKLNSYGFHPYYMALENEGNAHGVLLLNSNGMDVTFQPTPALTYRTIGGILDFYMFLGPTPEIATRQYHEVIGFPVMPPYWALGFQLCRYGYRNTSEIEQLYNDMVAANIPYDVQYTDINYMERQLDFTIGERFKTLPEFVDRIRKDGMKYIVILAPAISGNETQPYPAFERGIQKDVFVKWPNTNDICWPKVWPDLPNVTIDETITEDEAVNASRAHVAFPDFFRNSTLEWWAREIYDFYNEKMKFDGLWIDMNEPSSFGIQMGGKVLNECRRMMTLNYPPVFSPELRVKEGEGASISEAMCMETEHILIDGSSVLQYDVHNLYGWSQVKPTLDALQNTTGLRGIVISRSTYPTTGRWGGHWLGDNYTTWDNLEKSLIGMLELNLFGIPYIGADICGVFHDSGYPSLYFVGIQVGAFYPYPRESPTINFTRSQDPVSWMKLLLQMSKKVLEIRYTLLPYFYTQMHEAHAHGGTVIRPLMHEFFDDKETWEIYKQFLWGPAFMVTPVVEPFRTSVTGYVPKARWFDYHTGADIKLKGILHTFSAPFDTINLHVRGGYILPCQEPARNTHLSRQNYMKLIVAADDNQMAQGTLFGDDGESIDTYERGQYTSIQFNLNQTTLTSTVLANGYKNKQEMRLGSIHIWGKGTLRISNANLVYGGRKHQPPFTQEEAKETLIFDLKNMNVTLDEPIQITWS
Description: The value thus measured was converted into the amount of decomposed sucrose, and the reaction speed was calculated using a standard method. The reaction speed of the control case (where distilled water was added instead of the sample solution) was also obtained in the same manner. Sucrase activity in the control case was calculated to be 100%. The percentage inhibition of the samples, each at a final concentration of 5x10⁻⁴ M, were obtained.

male ICR mice = assay: Acute toxicity test (LD50 by Van der Waerden method); format: in vivo; conditions: intraabdominal administration
Description: An acute toxicity test of the sucrase activity inhibitor of the present invention was carried out using male ICR mice. LD₅₀ was calculated by the Van der Waerden method.

SMILES	Inhibition (%) (Sucrase)	sucrase activity inhibiting capacity (Sucrase)	LD₅₀(reliable limit) (male ICR mice) [mg/kg]
Oc1cc(O)c2c(c1)O[C@H](c1ccc(O)c(O)c1)[C@@H](O)C2 [(+)Catechin, reference compound]	13.7	–	–
O=C(O[C@@H]1Cc2c(O)cc(O)cc2O[C@@H]1c1ccc(O)c(O)c1)c1cc(O)c(O)c(O)c1 [Epicatechin Gallate, (-) Epicatechin Gallate]	62.5	–	–
Oc1cc(O)c2c(c1)O[C@H](c1ccc(O)c(O)c1)[C@H](O)C2 [Epicatechin, (-) Epicatechin]	14.7	only slight	–
O=C(O[C@@H]1Cc2c(O)cc(O)cc2O[C@@H]1c1cc(O)c(O)c(O)c1)c1cc(O)c(O)c(O)c1 [Epigallocatechin Gallate, (-) Epigallocatechin Gallate]	78.8	–	150
Oc1cc(O)c2c(c1)O[C@H](c1cc(O)c(O)c(O)c1)[C@H](O)C2 [Epigallocatechin, (-) Epigallocatechin]	17.3	only slight	–
O=c1c(O)cc([C@H]2Oc3cc(O)cc(O)c3C[C@H]2O)cc2c([C@H]3Oc4cc(O)cc(O)c4C[C@H]3O)cc(O)c(O)c12 [Free Theaflavin]	6.8	only slight	–
O=C(O)c1cc(O)c(O)c(O)c1 [Gallic Acid, reference compound]	6.7	–	–
O=C(O[C@@H]1Cc2c(O)cc(O)cc2O[C@@H]1c1cc(O)c(=O)c2c(O)c(O)cc([C@H]3Oc4cc(O)cc(O)c4C[C@H]3OC(=O)c3cc(O)c(O)c(O)c3)c2c1)c1cc(O)c(O)c(O)c1 [Theaflavin Digallate]	95.9	–	–
O=C(O[C@@H]1Cc2c(O)cc(O)cc2O[C@@H]1c1cc(O)c(=O)c2c(O)c(O)cc([C@H]3Oc4cc(O)cc(O)c4C[C@H]3O)c2c1)c1cc(O)c(O)c(O)c1 [Theaflavin Monogallate A]	45.9	–	–
O=C(O[C@@H]1Cc2c(O)cc(O)cc2O[C@@H]1c1cc(O)c(O)c2c(=O)c(O)cc([C@H]3Oc4cc(O)cc(O)c4C[C@H]3O)cc12)c1cc(O)c(O)c(O)c1 [Theaflavin Monogallate B]	59.5	–	–
